This note sets out measurements from patent publication US20230060174A1, “PHARMACEUTICAL COMPOSITION OF TRICYCLIC PDE3/PDE4 DUAL INHIBITOR COMPOUND” (CHIA TAI TIANQING PHARMACEUTICAL GROUP CO., LTD., priority 2020, published 2023).

Data set [1] addresses T1, recombinant human PDE3A (Homo sapiens, UniProt Q14432).
T1 construct: amino acid 669-end; GST (N); host or cells: Sf9 insect cells (baculovirus)
In words: In vitro inhibitory activity against PDE 3A enzyme (fluorescence polarization). In kind it is biochemical. The settings on record: 1 μM cAMP substrate. As to the method:
Experimental Example 3: In vitro detection of the inhibitory activity of the compound against PDE 3A enzyme
Objective: to determine the AMP/GMP expression based on fluorescence polarization, i.e., to trace binding of AMP/GMP to antibody so as to indicate enzyme activity.
Buffer solution: 10 mM Tris—HCl (pH 7.5), 5 mM MgCl2, 0.01% Brij 35, 1 mM dithiothreitol (DTT), and 1% DMSO.
Enzyme: recombinant human PDE3A (Gene accession number: NM 000921; amino acid 669-end) was expressed by baculovirus in Sf9 insect cells using an N-terminal GST tag, with the molecular weight being 84 kDa.
Enzyme substrate: 1 μM cAMP Detection: TranscreenerOAMP2/GMP2 antibody and AMP2/GMP2 AlexaFluor633 tracer.
Procedures: • 1. The recombinant human PDE3A enzyme and enzyme substrate (μM cAMP) were each dissolved in newly prepared experimental buffer solution; • 2. […] The measurement range of fluorescence polarization was […]. • Data analysis: the fluorescence polarization signal was converted to nM based on AMP/GMP standard curve and the percentage enzyme activity relative to DMSO control calculated by Excel. […] The measurement range of fluorescence polarization was Ex/Em=620/688. • […]

The nature of data set [2]: Pharmacokinetic study in beagle dogs. The format is in vivo. As for the experimental part: Experimental Example 5: Pharmacokinetic study in beagle dogs In this study, male beagle dogs were selected as test animals, and LC-MS/MS was used for quantitatively measuring the drug concentration in plasma of beagle dogs at different time points after intravenous injection or intragastric administration of the compound of formula (I) so as to evaluate the pharmacokinetics of the compound of formula (I) in beagle dogs.
The clear solution of the compound of formula (I) was injected into two beagle dogs of 10-12 kg via the cephalic vein or saphenous vein, and the clear solution of the compound of formula (I) was administered intragastrically to two beagle dogs of 10-12 kg (overnight fasted). The animals were all subjected to approximately […] blood collection each time from peripheral veins at 0.0333, 0.0833, 0.25, 0.5, 1, 2, 4, 6, 8 and 24 h post-dose, and the blood was transferred into commercial centrifuge tubes containing 0.85-1.15 mg of K2 EDTA.2H20 anticoagulant, and plasma was separated by centrifugation at 3000 g for 10 min at 4° C. The plasma concentration was measured by LC-MS/MS, and the relevant pharmacokinetic parameters were calculated using WinNonlinTM Version 6.3 (Pharsight, Mountain View, Calif.), a pharmacokinetic software, with a non-compartmental model linear-log trapezoidal method.

The target of data set [3] is T2, CYP2C19 (Homo sapiens, UniProt P33261).
T2 construct: co-incubated with human liver microsomes; from tissue; host or cells: human liver microsomes
In words: Inhibition of human liver microsomal CYP2C19 ((S)-mephenytoin probe). The format is in vitro ADME. The settings on record: human liver microsomes. As to the method: (§1) Experimental Example 6: Inhibitory effect on activity of isoenzymes (CYP1A2, CYP2C9, CYP2C19, CYP2D6 and CYP3A4) of human liver microsomal cytochrome P450 A total of 5 specific probe substrates of 5 isoenzymes of CYP, namely phenacetin (CYP1A2), diclofenac (CYP2C9), (S)-mephenytoin (CYP2C19), dextromethorphan (CYP2D6) and midazolam (CYP3A4) were each co-incubated with human liver microsomes and the compound of formula (I), and then reduced nicotinamide adenine dinucleotide phosphate (NADPH) was added to initiate the reaction. After the reaction was completed, the samples were treated, and the concentrations of 5 metabolites (acetaminophen, 4′-hydroxydiclofenac, 4′-hydroxymephenytoin, dextrorphan and l′-hydroxymidazolam) generated from the specific substrates were quantitatively detected by lC-MS/MS to calculate the correcnondino- half maximal inhibitory concentrationc (IC50)

In data set [4] the target is T3, CYP3A4 (Homo sapiens, UniProt P08684).
T3 construct: co-incubated with human liver microsomes; from tissue; host or cells: human liver microsomes
Put plainly: Inhibition of human liver microsomal CYP3A4 (midazolam probe). In kind it is in vitro ADME. To be noted: human liver microsomes. As for the experimental part: as §1

Setting [5] is: intragastric administration 3 mg/kg.

Where only a bound is given, the exact number is not on record here.

T3 sequence (P08684 whole entry): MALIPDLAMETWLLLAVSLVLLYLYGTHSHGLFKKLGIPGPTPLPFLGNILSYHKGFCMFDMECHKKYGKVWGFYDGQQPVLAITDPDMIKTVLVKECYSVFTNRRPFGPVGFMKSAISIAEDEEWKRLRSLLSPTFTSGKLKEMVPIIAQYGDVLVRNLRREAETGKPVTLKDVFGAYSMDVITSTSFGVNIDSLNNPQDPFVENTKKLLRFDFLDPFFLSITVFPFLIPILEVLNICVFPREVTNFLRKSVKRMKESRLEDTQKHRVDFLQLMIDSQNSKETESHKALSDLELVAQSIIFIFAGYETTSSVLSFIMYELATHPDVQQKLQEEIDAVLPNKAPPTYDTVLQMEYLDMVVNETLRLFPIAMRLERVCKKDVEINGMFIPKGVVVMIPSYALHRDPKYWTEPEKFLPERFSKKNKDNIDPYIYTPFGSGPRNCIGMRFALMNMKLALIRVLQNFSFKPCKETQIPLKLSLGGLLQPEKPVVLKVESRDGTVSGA
T1 sequence (Q14432 669-1141 limits assumed): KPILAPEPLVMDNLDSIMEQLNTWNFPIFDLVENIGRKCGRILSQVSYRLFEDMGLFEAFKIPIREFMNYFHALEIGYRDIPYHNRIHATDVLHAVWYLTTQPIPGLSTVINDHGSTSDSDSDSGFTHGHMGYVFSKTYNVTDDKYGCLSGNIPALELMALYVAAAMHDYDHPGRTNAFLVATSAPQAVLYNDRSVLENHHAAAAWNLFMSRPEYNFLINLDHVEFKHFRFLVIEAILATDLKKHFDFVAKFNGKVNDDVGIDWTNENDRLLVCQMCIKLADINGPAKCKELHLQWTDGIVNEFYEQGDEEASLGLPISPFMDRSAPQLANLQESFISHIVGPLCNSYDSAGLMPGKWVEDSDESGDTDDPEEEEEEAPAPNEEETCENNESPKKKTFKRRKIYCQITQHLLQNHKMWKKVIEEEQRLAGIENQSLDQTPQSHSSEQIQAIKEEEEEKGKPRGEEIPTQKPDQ
T2 sequence (P33261 whole entry): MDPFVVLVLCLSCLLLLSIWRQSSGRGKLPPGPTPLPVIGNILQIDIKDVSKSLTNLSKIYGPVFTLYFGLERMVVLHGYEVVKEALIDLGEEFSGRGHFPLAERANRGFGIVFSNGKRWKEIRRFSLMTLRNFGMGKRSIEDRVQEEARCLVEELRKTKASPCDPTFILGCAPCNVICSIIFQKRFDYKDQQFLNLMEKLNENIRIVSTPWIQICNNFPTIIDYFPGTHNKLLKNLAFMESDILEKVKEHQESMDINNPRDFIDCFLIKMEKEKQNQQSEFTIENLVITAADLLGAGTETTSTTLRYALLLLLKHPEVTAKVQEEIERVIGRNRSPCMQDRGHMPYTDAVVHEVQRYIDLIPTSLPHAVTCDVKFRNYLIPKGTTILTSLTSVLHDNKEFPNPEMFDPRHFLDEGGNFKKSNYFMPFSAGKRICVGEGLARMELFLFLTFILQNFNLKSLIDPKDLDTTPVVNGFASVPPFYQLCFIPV

Consider `CCOc1cc2c(cc1OC)-c1c/c(=N\c3c(C)cc(C)cc3C)n(CCNC(=O)c3c(O)nnn3C)c(=O)n1CC2` [Compound of formula (I)], for which the half-inhibitory concentration (IC50) in data set [1] was 0.03 nM; in data set [3], at least 50 µM; in data set [4] it was at least 50 µM. Moreover, the figures for the “Area under plasma concentration-time curve (0-inf)” value in data set [2] (setting [5]) and in data set [2] (intravenous injection 0.5 mg/kg) were 0.123 µM·h and 0.21 µM·h, respectively. The Peak concentration in data set [2] (setting [5]) is 59.4 nM. Besides, the Time to peak in data set [2] (setting [5]) was found to be 0.6 h.
